Data from US5318989A, “Cytotoxic bicyclo [7.3.1.]tridec-4-ene-2,6-diyne compounds and process for the preparation thereof” (Bristol-Myers Squibb Company, priority 1992, dated 1994).
In brackets after ≈: the same amount, converted by molar mass. Several values for one entry are separate records, joined by “and”; a condition that tells them apart may be missing. Identical values can stand only once. Like-named read-outs stand apart in the source and are kept apart here.

Tests used:
[1] = test system: P388 leukemia; test: In vivo activity against transplantable murine P388 leukemia in CDF1 mice; conditions: for Survival d.5: day 5; for Med. Survival Time / % T/C: intraperitoneal; for Med. Survival Time: 5 consecutive days from day 1, control 11 d; for % T/C: 5 consecutive days, 125 or greater is significant
Protocol: The compound of Example 4 was also evaluated against transplantable murine P388 leukemia. CDF1 mice were implanted intraperitoneally with a tumor inoculum of 10^6 cells of P388 leukemia and treated with various doses of the test compound Six mice were used for each dose level and 10 mice were treated with saline to serve as control. The test compound was administered intraperitoneally on 5 consecutive days starting on day 1 after tumor implantation. Antitumor activity is expressed as % T/C which is the ratio of mean survival time (MST) for the drug-treated group to the MST of saline-treated control group.
A compound showing a % T/C of 125 or greater is considered to have significant antitumor activity.

[2] = test system: DNA; conditions: J. Org. Chem. 1989, 54:2781-2783; J. Am. Chem. Soc. 1989, 111:7638-7641; cited from earlier work
[3] = test system: HCT-116 human colon tumor cell line; test: In vitro cytotoxicity assay; assay type: cell-based; conditions: three determinations
Protocol: (§1) Compound of Example 4 was evaluated in vitro against three human colon tumor cell lines: HCT-116, HCT/VM46, and HCT/VP35; the latter two are resistant to teniposide and etoposide, respectively. The in vitro cytotoxicity assay involved growing tumor cells on microtitre plates employing established tissue culture methods. The concentration of the test compound required to inhibit cell growth by 50% (IC50) was then determined by four-fold serial dilution technique. In the experiment, etoposide and teniposide were included as positive controls.

[4] = test system: HCT/VP35 human colon tumor cell line (etoposide-resistant); test: In vitro cytotoxicity assay; assay type: cell-based; conditions: three determinations
Protocol: as §1

[5] = test system: HCT/VM46 human colon tumor cell line (teniposide-resistant); test: In vitro cytotoxicity assay; assay type: cell-based; conditions: three determinations
Protocol: as §1

[6] = Homo sapiens, HCT-116, HCT-116, read-out: IC50
[7] = Homo sapiens, HCT/VP35, HCT/VP35, read-out: IC50

In the case of “1-Hydroxy-8-[[(2-quinoxolyamino)carbonyl]oxy]-bicyclo[7.3.1]trideca-4,7-diene-2,6-divn-13-one [Example 8]”, the “max. %T/C” value ([1]; at 15 mg/kg/dose, same protocol) is reported as 145%.

In the case of `O=C1CC2C(=O)C(O)(C#CC=CC#CC2O)C1` (centres unmarked) [1,8-dihydroxy-bicyclo[7.3.1]tridec-4-ene-2,6-diyn-11,13-dione], the “DNA cleavage in vitro” value [2] is listed as “shown to cleave DNA in vitro”.

For `COc1cc([C@@H]2c3cc4c(cc3[C@@H](O[C@@H]3O[C@@H]5CO[C@@H](C)O[C@H]5[C@H](O)[C@H]3O)[C@H]3COC(=O)[C@H]23)OCO4)cc(OC)c1O` [Etoposide], the IC50 ([3]; HCT-116) was 0.128 µg/mL and 0.140 µg/mL, the IC50 [3, 6] was 0.101 µg/mL (≈ 0.172 µM) and the IC50 ([4]; HCT/VP35) was 6.29 µg/mL and 6.75 µg/mL. For the same compound, the IC50 [4, 7] was 5.14 µg/mL (≈ 8.73 µM).

For `O=C1C2=CCCC1(O)C#CC=CC#CC2O` (centres unmarked) [Example 4, 1,8-Dihydroxy-bicyclo7.3.1]trideca-4,9-diene-2,6-divn-13-one], the IC50 ([3]; HCT-116) was 0.037 µg/mL and 0.043 µg/mL and < 0.031 µg/mL, the IC50 ([4]; HCT/VP35) was 0.042 µg/mL and 0.046 µg/mL and 0.072 µg/mL and the IC50 [5] was < 0.031 µg/mL and 0.047 µg/mL. The “Survival d.5” value ([1]; 1 mg/kg/dose) was 6/6, the “Med. Survival Time” value ([1]; 1 mg/kg/dose) was 13 days and the “% T/C” value ([1]; 1 mg/kg/dose) was 118%. For the same compound, the “Survival d.5” value ([1]; 2 mg/kg/dose) was 6/6, the “Med. Survival Time” value ([1]; 2 mg/kg/dose) was 16.5 days and the “% T/C” value ([1]; 2 mg/kg/dose) was 150%. The “Survival d.5” value ([1]; 4 mg/kg/dose) was 6/6, the “Med. Survival Time” value ([1]; 4 mg/kg/dose) was 20.0 days and the “% T/C” value ([1]; 4 mg/kg/dose) was 182%. The “Survival d.5” value ([1]; 8 mg/kg/dose) was 6/6, the “number of surviving mice on day 39” value ([1]; 8 mg/kg/dose, day 39) was 4 mice and the “Med. Survival Time” value ([1]; 8 mg/kg/dose) was over 39 days. For the same compound, the “% T/C” value ([1]; 8 mg/kg/dose) was over 355%, the “Survival d.5” value ([1]; 16 mg/kg/dose) was 6/6 and the “Med. Survival Time” value ([1]; 16 mg/kg/dose) was 9.5 days. For the same compound, the “% T/C” value ([1]; 16 mg/kg/dose) was 86%, the “Survival d.5” value ([1]; 32 mg/kg/dose) was 6/6 and the “Med. Survival Time” value ([1]; 32 mg/kg/dose) was 7 days. The “% T/C” value ([1]; 32 mg/kg/dose) was 64% and the “activity against P388 leukemia” value ([1]; conclusion from Table II) was “high activity against P388 leukemia”.

With `O=C(OC1C#CC=CC#CC2(O)CCC=C1C2=O)c1cnc2ccccc2n1` (centres unmarked) [Example 6] the “mouse surviving on day 31” value ([1]; 20 mg/kg/dose, day 31) was “one” and the “maximum %T/C” value ([1]; at 20 mg/kg/dose, same protocol) was 235%.

With `O=C1C2=CCCC1(O)C#C/C=C\C#CC2` (centres unmarked) [Example 15, 1-Hydroxy-bicylco[7.3.1]trideca-4,9-diene-2,6-diyne-13-one] the “max. %T/C” value ([1]; at 40 mg/kg/dose, same protocol) was 230%.

With `COc1cc([C@@H]2c3cc4c(cc3[C@@H](O[C@@H]3O[C@@H]5CO[C@@H](c6cccs6)O[C@H]5[C@H](O)[C@H]3O)[C@H]3COC(=O)[C@H]23)OCO4)cc(OC)c1O` [Teniposide] the IC50 ([3]; HCT-116) was 0.088 µg/mL and 0.083 µg/mL, the IC50 [3, 6] was 0.077 µg/mL (≈ 0.117 µM) and the IC50 ([4]; HCT/VP35) was 0.091 µg/mL and 0.111 µg/mL. For the same compound, the IC50 [4, 7] was 0.084 µg/mL (≈ 0.128 µM), the IC50 ([5]; Homo sapiens, read-out: IC50) was 0.313 µg/mL (≈ 0.477 µM) and the IC50 [5] was 0.237 µg/mL and 0.236 µg/mL.
